# Earlier results in patent US20230233498A1, “COMPOSITIONS AND METHODS FOR THE TREATMENT OF COVID-19” (PROTHIONE, LLC, priority 2020, published 2023).
# Like-named read-outs stand apart in the source and are kept apart here.
# Key:
# [1] = tested on: zinc-dependent metalloproteinases; settings: for GP shedding: higher concentrations (25-50 mM)
# [2] = tested on: rotaviruses; settings: 10 mM
# [3] = tested on: Human Foreskin (HF) cells infected with HSV-2-strain G; settings: 3 to 1.5 mM
structure (smiles),measurement,setting,value
CC(C)C[C@H](CC(=O)NO)C(=O)N[C@@H](Cc1ccc2ccccc2c1)C(=O)N[C@@H](C)C(=O)NCCN [TAPI-I],GP shedding,[1],reduced GP shedding
COc1ccc(S(=O)(=O)N(CC(=O)NO)CC(C)C)cc1 [MMP-3 inhibitor II],GP shedding,[1],reduced GP shedding
CNC(=O)[C@@H](NC(=O)[C@H](CC(C)C)[C@H](O)C(=O)NO)C(C)(C)C [BB2516],inhibition of glycoprotein shedding,[1]; concentration of 0.5 mM,inhibitory effects were observed
COc1ccc(S(=O)(=O)N2Cc3ccccc3C[C@@H]2C(=O)NO)cc1 [MMP-8 inhibitor I],inhibition of glycoprotein shedding,[1]; concentration of 5 mM,inhibitory effects were observed
CNC(=O)[C@H](Cc1c[nH]c2ccccc12)NC(=O)[C@@H](CC(=O)NO)CC(C)C [GM6001],inhibition of glycoprotein shedding,[1]; concentration of 5 mM,inhibitory effects were observed
"O=C(O)CN(CCN(CC(=O)O)CC(=O)O)CC(=O)O [EDTA, ethylenediaminetetraacetic acid]",effect on viral particles,[2],non-infectious viral particles
COc1ccc(S(=O)(=O)N(Cc2cccnc2)[C@@H](C(=O)NO)C(C)C)cc1 [CGS-27023A],GP shedding,[1],reduced GP shedding
O=C(O)c1ccccn1 [picolinic acid],apoptosis of infected cells,[3],cause apoptosis of HF infected cells
